This is an account of results in ChEMBL document CHEMBL1909046, “DrugMatrix in vitro pharmacology data”.

Assay [1] is described as follows: DRUGMATRIX: Sodium/nucleoside co-transporter radioligand binding (ligand: nitrobenzylthioinosine). Type of assay: cell membranes, Cavia porcellus, Dunkin-Hartley, Cerebral cortex, Membrane. The conditions noted are these: Not Active = under 50% inhibition at 10 µM.
Assay [2] addresses T1, Alpha-1B adrenergic receptor (Rattus norvegicus, UniProt P15823).
T1 sequence (P15823 whole entry): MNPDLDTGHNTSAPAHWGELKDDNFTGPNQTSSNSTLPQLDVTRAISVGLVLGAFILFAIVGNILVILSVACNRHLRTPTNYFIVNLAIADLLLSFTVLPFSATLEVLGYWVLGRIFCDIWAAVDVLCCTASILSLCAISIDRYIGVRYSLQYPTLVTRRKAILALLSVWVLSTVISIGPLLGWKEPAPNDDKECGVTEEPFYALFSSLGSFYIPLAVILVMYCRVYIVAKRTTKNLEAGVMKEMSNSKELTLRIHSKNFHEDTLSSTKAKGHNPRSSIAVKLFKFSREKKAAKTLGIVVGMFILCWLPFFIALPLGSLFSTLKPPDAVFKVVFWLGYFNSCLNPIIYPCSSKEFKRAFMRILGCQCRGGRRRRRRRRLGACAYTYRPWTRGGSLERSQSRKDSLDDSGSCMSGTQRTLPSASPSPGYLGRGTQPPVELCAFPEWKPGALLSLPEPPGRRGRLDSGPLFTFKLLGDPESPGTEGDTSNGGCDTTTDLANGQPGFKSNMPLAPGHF
The assay can be described thus: DRUGMATRIX: Alpha-1B adrenergic receptor radioligand binding (ligand: prazosin). It counts as cell membranes, Wistar, Liver, Membrane. Conditions: Not Active = under 50% inhibition at 10 µM.

A short description of assay [3]: DRUGMATRIX: ATPase, Na+/K+ enzyme inhibition (substrate: ATP). It counts as tissue-based, Sus scrofa, Heart. The conditions noted are these: Not Active = under 50% inhibition at 10 µM.
Assay [4] is described as follows: DRUGMATRIX: beta-Lactamase enzyme inhibition (substrate: Nitrocefin). On the set-up: species or system Bacillus cereus. Conditions: Not Active = under 50% inhibition at 10 µM.
Assay [5] in a line: DRUGMATRIX: Glutamate, AMPA radioligand binding (ligand: [3H] AMPA). It counts as cell membranes, Rattus norvegicus, Wistar, Cerebral cortex, Membrane. The conditions noted are these: Not Active = under 50% inhibition at 10 µM.
Assay [6] is described as follows: DRUGMATRIX: Glutamate, Kainate radioligand binding (ligand: [3H] Kainic acid). Type of assay: cell membranes, Rattus norvegicus, Wistar, Brain, Membrane. Conditions: Not Active = under 50% inhibition at 10 µM.
Assay [7] can be described thus: DRUGMATRIX: Nicotinic Acetylcholine radioligand binding (ligand: [125I] Epibatidine). It counts as cell membranes, Membrane. Conditions: imr-32; Not Active = under 50% inhibition at 10 µM.
Assay [8] in a line: DRUGMATRIX: Phorbol Ester radioligand binding (ligand: [3H] PDBu). It counts as cell membranes, Mus musculus, ICR, Brain, Membrane. The conditions noted are these: Not Active = under 50% inhibition at 10 µM.
For another assay, the target named is T2, Glucocorticoid receptor (Homo sapiens, UniProt P04150). Note: in other assays of this panel Not Active means under 50% inhibition at 10 µM.
T2 sequence (P04150 whole entry): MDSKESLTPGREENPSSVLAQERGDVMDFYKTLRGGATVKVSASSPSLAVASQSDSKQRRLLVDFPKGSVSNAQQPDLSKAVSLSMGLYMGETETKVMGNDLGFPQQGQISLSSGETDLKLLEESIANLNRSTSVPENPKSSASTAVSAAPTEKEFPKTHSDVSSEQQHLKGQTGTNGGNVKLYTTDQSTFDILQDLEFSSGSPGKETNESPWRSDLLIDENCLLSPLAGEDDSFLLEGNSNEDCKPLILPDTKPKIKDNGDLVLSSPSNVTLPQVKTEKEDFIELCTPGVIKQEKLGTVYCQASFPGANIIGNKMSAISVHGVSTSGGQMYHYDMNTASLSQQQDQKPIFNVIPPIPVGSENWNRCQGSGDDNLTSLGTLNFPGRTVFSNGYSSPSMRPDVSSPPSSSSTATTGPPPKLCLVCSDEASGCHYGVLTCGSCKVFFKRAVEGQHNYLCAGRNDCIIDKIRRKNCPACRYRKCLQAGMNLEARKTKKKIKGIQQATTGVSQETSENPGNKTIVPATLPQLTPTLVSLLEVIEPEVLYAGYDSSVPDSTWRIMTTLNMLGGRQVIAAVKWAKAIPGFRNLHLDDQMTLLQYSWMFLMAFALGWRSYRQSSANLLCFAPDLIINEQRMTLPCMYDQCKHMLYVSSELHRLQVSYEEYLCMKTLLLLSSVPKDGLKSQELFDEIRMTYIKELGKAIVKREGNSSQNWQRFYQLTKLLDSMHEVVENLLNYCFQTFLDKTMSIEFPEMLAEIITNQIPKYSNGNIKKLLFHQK
Conditions: hela s3.

The term IC50 denotes the concentration needed to halve the response being measured. As usually defined, the Ki is a dissociation constant, usually derived from enzyme kinetics or from competition with a known ligand. Consider `CCCCC(=O)N(Cc1ccc(-c2ccccc2-c2nnn[nH]2)cc1)[C@H](C(=O)O)C(C)C`, for which the IC50 entry in assay [1], in assay [2], in assay [3], in assay [4], in [5] and in assay [6] was “Not Active” throughout. Besides, the IC50 entry (in [7]; in assay [8]; against Glucocorticoid receptor) was “Not Active” in each case. Moreover, the Ki result in assay [1], in assay [3], in assay [4], in assay [5], in assay [6] and in [7] was “Not Active” each time. Further, the Ki entry in assay [8] is “Not Active”.

For the compound `O=C(O)COc1ccc(C(=O)c2cccs2)c(Cl)c1Cl`, the IC50 entry in assay [1], in assay [2], in [3], in assay [4], in assay [5] and in [6] was “Not Active” each time. Also, the IC50 result (in assay [7]; in assay [8]; at Glucocorticoid receptor) was “Not Active” each time. Further, the Ki result in [1], in assay [3], in [4], in assay [5], in assay [6] and in assay [7] was “Not Active” each time. For the same compound, the Ki result in [8] is on record as “Not Active”.

In the case of `CN1[C@@H]2CC[C@H]1C[C@@H](OC(c1ccccc1)c1ccccc1)C2` [BENZTROPINE], the IC50 result at Glucocorticoid receptor is listed as “Not Active”.

`C[C@@](Cc1ccc(O)c(O)c1)(NN)C(=O)O.O` [CARBIDOPA]: the IC50 result in assay [1], in [2], in [3], in [4], in [5] and in [6] was “Not Active” in each case. Further, the concentration for half-maximal inhibition (IC50) entry in [7] and in assay [8] was “Not Active” in each case. In addition, the Ki result in assay [1], in [3], in [4], in [5], in [6] and in assay [7] was “Not Active” in each case. Further, the Ki result in [8] is given as “Not Active”.

Consider `CN1CCN(C2=Nc3cc(Cl)ccc3Nc3ccccc32)CC1` [CLOZAPINE], for which, on Glucocorticoid receptor, the IC50 result was “Not Active”.

Take `CN(C)C(=O)C(CCN1CCC(O)(c2ccc(Cl)cc2)CC1)(c1ccccc1)c1ccccc1` [LOPERAMIDE]: on Glucocorticoid receptor, the IC50 entry is “Not Active”.

For `Clc1ccc(COC(Cn2ccnc2)c2ccc(Cl)cc2Cl)c(Cl)c1` (configuration not stated) [MICONAZOLE], the IC50 result at Glucocorticoid receptor is recorded as “Not Active”.

`Oc1ccc2c3c1O[C@H]1[C@@H](O)CC[C@@]4(O)[C@@H](C2)N(CC2CCC2)CC[C@]314` [NALBUPHINE]: the IC50 result on Glucocorticoid receptor is on record as “Not Active”.

Regarding `C[C@]12C=CC(=O)C=C1CC[C@@H]1[C@@H]2C(=O)C[C@@]2(C)[C@H]1CC[C@]2(O)C(=O)CO` [PREDNISONE], the IC50 in [1] (read-out: IC50) is 4.95 µM; in assay [2], “Not Active”; in [3], “Not Active”; in [4], “Not Active”; in [5] it was “Not Active”; in assay [6], “Not Active”. Also, the IC50 entry in assay [7] and in assay [8] was “Not Active” throughout. Also, the Ki in assay [1] (read-out: Ki) is 1.69 µM; in [3] it was “Not Active”; in assay [4], “Not Active”; in assay [5] it was “Not Active”; in [6], “Not Active”; in [7] it was “Not Active”. The Ki entry in [8] is “Not Active”.

As to `O=C(O)c1ccccc1O` [SALICYLIC ACID], the IC50 entry in [1], in assay [2], in assay [3], in assay [4], in assay [5] and in assay [6] was “Not Active” throughout. For the same compound, the IC50 entry in assay [7] and in assay [8] was “Not Active” each time. Also, the Ki result in assay [1], in assay [3], in assay [4], in assay [5], in [6] and in assay [7] was “Not Active” in each case. Besides, the Ki result in assay [8] is on record as “Not Active”.

For the compound `C[S+]([O-])c1ccc(-c2nc(-c3ccncc3)c(-c3ccc(F)cc3)[nH]2)cc1` (configuration not stated) [SB-203580], the IC50 result against Glucocorticoid receptor is given as “Not Active”.

As for `O=C1C[C@@H]2OCC=C3CN4CC[C@]56c7ccccc7N1[C@H]5[C@H]2[C@H]3C[C@H]46` [STRYCHNINE], the IC50 result in [1], in [2], in [3], in assay [4], in assay [5] and in assay [6] was “Not Active” throughout. Further, the IC50 entry in assay [7] and in assay [8] was “Not Active” each time. For the same compound, the Ki result in assay [1], in assay [3], in [4], in [5], in assay [6] and in assay [7] was “Not Active” throughout. In addition, in assay [8], the Ki entry is “Not Active”.

Take `CCCCCCCCNC(C)C(O)c1ccc(SC(C)C)cc1` (configuration not stated) [SULOCTIDIL]: the IC50 result in assay [1], in assay [2], in [3], in assay [4], in assay [5] and in assay [6] was “Not Active” throughout. Further, the IC50 entry (in assay [8]; on Glucocorticoid receptor) was “Not Active” throughout. Also, the Ki entry in assay [1], in assay [3], in assay [4], in assay [5], in assay [6] and in [8] was “Not Active” in each case.

With `O=c1[nH]c(=O)n(C2CCCO2)cc1F` (configuration not stated) [TEGAFUR], the IC50 entry in [1], in assay [2], in [3], in assay [4], in [5] and in assay [6] was “Not Active” each time. The IC50 entry in assay [7] and in assay [8] was “Not Active” throughout. Besides, the Ki entry in [1], in assay [3], in [4], in assay [5], in assay [6] and in assay [7] was “Not Active” each time. Further, in assay [8], the Ki entry is “Not Active”.

Regarding `CC(=N)S` [THIOACETAMIDE], the IC50 entry in assay [1], in assay [2], in [3], in [4], in assay [5] and in [6] was “Not Active” in each case. In addition, the IC50 entry in assay [7] and in assay [8] was “Not Active” throughout. The Ki entry in [1], in [3], in assay [4], in assay [5], in assay [6] and in assay [7] was “Not Active” each time. Moreover, the Ki result in assay [8] is “Not Active”.

As to `Cc1ccc(C(=O)c2ccc(CC(=O)O)n2C)cc1` [TOLMETIN], the IC50 result in [1], in assay [2], in assay [3], in assay [4], in assay [5] and in [6] was “Not Active” each time. Also, the IC50 entry in assay [7] and in assay [8] was “Not Active” throughout. Further, the Ki result in assay [1], in assay [3], in [4], in [5], in [6] and in assay [7] was “Not Active” each time. The Ki entry in assay [8] is recorded as “Not Active”.
